Results published in patent US8846633B2, “Method for inhibiting cancer stem cell like properties and chemoradioresistant properties of cancer or tumor cells with microRNA145” (Taipei Veterans General Hospital, priority 2011, dated 2014).

Columns and labels:
ALDH1+CD44+ HNC cells [1] = experiment: HNC-TIC orthotopic xenograft, tumor size; format: in vivo, nude mice; details: intra-tumoral lesion injection; five weeks after treatment; vs pLV or shLuc
Procedure: (§1) We further explored the therapeutic potential of miR145 in immunocompromised mice bearing HNC-TIC xenografted tumors. Nude mice that were orthotopically pre-injected with GFP-labeled ALDH1^+CD44^+ cells in the neck region were treated with miR145-overexpressing lentivirus (pLV-miR-145) and shSOX9+shADAM17 by intra-tumoral lesion injection. […] By monitoring the treated mice for up to 12 weeks, we observed that administration of pLV-miR145 or shSOX9+shADAM17 prolonged animal survival to a greater extent than did the LNA-miR145 treatment (FIG. 10B).

ALDH1+CD44+ HNC cells [2] = experiment: HNC-TIC orthotopic xenograft, survival; format: in vivo, nude mice; details: monitored up to 12 weeks
Procedure: as §1

HNC cells [3] = experiment: invasion of HNC cells; format: cell-based, human; details: ALDH1+CD44+ cells; data not shown
Text: (§2) To identified the miRNA(s) involved in the regulation of TIC properties in HNC-TICs, we evaluated and compared the miRNA expression profiles in 3 pairs of HNC populations (ALDH1^+ vs. ALDH1^−, CD44^+ vs. CD44^−, and sphere-forming vs. parental) derived from patient specimens. […] To further investigate whether miR145 plays a role in the identity of HNC-TICs, two patient sample-derived HNC cell lines (HNC-1 and HNC-2) and an immortalized HNC cell line (FaDu) were subjected to quantitative RT-PCR analysis to confirm that miR145 levels were low in ALDH1^+/CD44^+ and sphere-forming HNC cells but high in ALDH1^−/CD44^− and parental cells (FIG. 8A, left and middle). To evaluate the role of miR145 on cancer initiation, we knocked down miR145 in ALDH1^−CD44^− cells derived from HNC-1, HNC-2, and FaDu cells using an miRNA SPONGE strategy (FIG. 8A, right), and subjected these cells to functional and molecular analysis. As shown in FIGS. 8B-D, the sphere formation ability and the percentage of ALDH1^+ and CD44^+ cells was all elevated upon miR145 knockdown (Spg-miR145) as compared to the control (Spg-ctrl) cells. […]

HNC cells [4] = experiment: sphere formation of HNC cells; format: cell-based, human; details: ALDH1+CD44+ cells; data not shown
Text: as §2

HNC cells [5] = experiment: percentage of ALDH1+ and CD44+ HNC cells; format: cell-based, human; details: data not shown
Text: as §2

ALDH1+CD44+ HNC cells [6] = experiment: tumor initiation of transfected ALDH1+CD44+ HNC cells; format: in vivo; details: ALDH1+CD44+ cells-transplanted grafts in NOD-SCID mice

## shSOX9+shADAM17: lentiviral-based shRNAs for co-knockdown of SOX9 (SEQ ID NO: 28) and ADAM17 (SEQ ID NO: 29) (chain 1 GCGGAGGAAGTCGGTGAAGAA; chain 2 CCTATGTCGATGCTGAACAAA; the letters are possibly those of the target site)
ALDH1+CD44+ HNC cells [1]
  tumor size: dramatically reduced
ALDH1+CD44+ HNC cells [2]
  animal survival: prolonged
HNC cells [3]
  invasive capacity: reduced
HNC cells [4]
  sphere-forming ability: reduction
HNC cells [5]
  percentages of CD44+ and ALDH1+ cells: reduced
ALDH1+CD44+ HNC cells [6]
  tumor-initiating property: effectively inhibited
